The target of series [1] is T1, Cytochrome P450 11B2, mitochondrial (Homo sapiens, UniProt P19099).
T1 sequence (P19099 whole entry): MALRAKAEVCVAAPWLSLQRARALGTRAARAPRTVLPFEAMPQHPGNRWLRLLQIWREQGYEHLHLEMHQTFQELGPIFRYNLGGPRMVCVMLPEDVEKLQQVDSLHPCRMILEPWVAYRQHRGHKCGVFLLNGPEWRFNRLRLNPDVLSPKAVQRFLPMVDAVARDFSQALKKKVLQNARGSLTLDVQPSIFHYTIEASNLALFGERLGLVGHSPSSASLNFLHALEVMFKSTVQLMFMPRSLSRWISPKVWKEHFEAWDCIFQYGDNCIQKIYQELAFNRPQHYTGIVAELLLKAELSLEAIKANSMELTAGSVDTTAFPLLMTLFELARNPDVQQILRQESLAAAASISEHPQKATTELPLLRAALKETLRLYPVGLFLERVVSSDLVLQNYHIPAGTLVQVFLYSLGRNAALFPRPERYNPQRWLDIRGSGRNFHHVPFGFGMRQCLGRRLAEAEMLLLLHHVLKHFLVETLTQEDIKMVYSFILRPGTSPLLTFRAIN
Put plainly: In vitro inhibition of human cytochrome P450 11B2 expressed in Schizosaccharomyces pombe with 500 nM deoxy-corticosterone.

Series [2] concerns the target T2, Cytochrome P450 11B1, mitochondrial (Bos taurus, UniProt P15150).
T2 sequence (P15150 whole entry): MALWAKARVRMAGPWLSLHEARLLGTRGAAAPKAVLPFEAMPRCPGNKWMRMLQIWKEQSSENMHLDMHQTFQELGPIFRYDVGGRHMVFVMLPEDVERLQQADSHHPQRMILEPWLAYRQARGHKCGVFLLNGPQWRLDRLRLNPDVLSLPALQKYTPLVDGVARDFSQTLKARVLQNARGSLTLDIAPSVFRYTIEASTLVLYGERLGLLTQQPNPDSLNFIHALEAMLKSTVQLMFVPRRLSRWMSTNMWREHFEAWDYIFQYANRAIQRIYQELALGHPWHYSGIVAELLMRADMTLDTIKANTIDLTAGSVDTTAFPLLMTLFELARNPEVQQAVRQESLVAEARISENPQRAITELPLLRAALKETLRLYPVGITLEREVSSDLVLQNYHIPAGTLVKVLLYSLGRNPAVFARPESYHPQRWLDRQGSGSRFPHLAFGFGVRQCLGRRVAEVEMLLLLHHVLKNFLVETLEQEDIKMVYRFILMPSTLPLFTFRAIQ
Put plainly: In vitro inhibition against bovine cytochrome P450 11B with 200 uM corticosterone. Conditions: cyp11b.

For series [3], the target named is T1, Cytochrome P450 11B2, mitochondrial. In words: In vitro inhibition of [14C]deoxycorticosterone binding to human cytochrome P450 11B2 expressed in hamster V79 MZh cells. It counts as cell-based.
Series [4] deals with T3, Steroid 17-alpha-hydroxylase/17,20 lyase (Homo sapiens, UniProt P05093).
T3 sequence (P05093 whole entry): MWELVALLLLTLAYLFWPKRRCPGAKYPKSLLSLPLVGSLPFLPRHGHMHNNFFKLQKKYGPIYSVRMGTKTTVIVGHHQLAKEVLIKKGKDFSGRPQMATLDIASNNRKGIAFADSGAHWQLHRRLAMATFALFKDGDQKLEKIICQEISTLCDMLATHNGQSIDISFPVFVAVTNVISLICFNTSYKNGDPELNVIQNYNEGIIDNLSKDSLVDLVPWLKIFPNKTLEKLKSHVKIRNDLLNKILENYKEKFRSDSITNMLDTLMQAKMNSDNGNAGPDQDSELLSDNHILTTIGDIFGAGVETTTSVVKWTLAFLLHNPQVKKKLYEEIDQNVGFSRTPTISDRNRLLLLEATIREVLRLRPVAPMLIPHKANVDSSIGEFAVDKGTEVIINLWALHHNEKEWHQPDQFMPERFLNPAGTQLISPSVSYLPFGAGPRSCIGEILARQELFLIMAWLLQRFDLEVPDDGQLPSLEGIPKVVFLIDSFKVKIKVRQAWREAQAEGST
In words: In vitro inhibition against human […] cytochrome P450 17 expressed in Escherichia coli with 2.5 uM progesterone.

The target of series [5] is T4, Cytochrome P450 11B1, mitochondrial (Homo sapiens, UniProt P15538).
T4 sequence (P15538 whole entry): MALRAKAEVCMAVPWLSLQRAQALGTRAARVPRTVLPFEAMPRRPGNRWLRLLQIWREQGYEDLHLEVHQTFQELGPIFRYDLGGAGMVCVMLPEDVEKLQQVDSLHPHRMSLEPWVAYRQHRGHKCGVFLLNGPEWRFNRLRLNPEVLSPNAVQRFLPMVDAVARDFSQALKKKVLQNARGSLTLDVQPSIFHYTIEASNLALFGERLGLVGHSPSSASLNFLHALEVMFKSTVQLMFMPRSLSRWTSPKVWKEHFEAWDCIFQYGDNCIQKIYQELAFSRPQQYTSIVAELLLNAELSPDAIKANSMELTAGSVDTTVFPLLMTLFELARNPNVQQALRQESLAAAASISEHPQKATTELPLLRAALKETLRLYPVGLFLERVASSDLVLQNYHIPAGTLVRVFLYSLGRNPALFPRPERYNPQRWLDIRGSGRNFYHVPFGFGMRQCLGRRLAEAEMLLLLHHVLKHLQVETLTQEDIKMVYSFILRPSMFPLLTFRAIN
Put plainly: In vitro inhibition of [14C]deoxycorticosterone binding to human cytochrome P450 11B1 expressed in hamster V79 MZh cells. It counts as cell-based.

The next series concerns the target T5, Aromatase (Homo sapiens, UniProt P11511).
T5 sequence (P11511 whole entry): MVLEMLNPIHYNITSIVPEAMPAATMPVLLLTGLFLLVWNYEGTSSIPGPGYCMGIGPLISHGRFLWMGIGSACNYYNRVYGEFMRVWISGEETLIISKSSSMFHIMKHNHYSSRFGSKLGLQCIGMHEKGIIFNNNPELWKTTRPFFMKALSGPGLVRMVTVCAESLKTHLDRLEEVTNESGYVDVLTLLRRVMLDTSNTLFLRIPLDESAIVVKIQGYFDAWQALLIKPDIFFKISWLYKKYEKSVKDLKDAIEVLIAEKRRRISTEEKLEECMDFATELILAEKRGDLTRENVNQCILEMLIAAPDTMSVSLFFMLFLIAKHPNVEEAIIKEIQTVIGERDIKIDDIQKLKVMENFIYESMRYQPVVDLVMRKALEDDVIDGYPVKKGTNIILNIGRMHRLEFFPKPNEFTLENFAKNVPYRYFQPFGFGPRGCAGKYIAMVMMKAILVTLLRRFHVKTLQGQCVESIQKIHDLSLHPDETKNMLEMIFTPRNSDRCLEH

Description for Aromatase: In vitro inhibitory concentration against human placental cytochrome P450 19 with 2.5 uM testosterone

With `Brc1ccc2c(c1)CC/C2=C/c1c[nH]cn1`, the Inhibition was found to be 76% in series [1], 88% in series [2] and 15% in series [4]. The compound further returned an IC50 in series [3] of 10.3 nM.

As for `N#Cc1ccc2c(c1)CC/C2=C/c1ncc[nH]1`, the values for the IC50 (in series [5]; in series [3]; against Aromatase) were 12.3 nM, 35.7 nM and 15 nM, respectively. Besides, the Inhibition in series [1] turned out to be 65%; in series [2], 100%; in series [4], 4%.

Regarding `Clc1ccc2c(c1)/C(=C/c1c[nH]cn1)CCC2`, the values for the Inhibition in series [1], in series [2] and in series [4] were 48%, 66% and 24%, respectively. Further, the IC50 is 47.3 nM in series [3] and 120 nM on Aromatase.

As to `Clc1ccc2c(c1)CC/C2=C/c1c[nH]cn1`, the Inhibition in series [1] is 80%; in series [2], 87%; in series [4], 26%. The compound also came in with a concentration for half-maximal inhibition (IC50) against Aromatase of 39 nM.

For the compound `N#Cc1ccc2c(c1)/C(=C\c1c[nH]cn1)CCC2`, the Inhibition in series [1] is 23%; in series [2], 97%; in series [4] it was 3%. Moreover, the 50% inhibitory concentration (IC50) at Aromatase was determined as 810 nM.

`N#Cc1ccc2c(c1)/C(=C/c1cnc[nH]1)CCC2`: the Inhibition is 8% in series [1], 62% in series [2] and 2% in series [4]. This compound gave an IC50 at Aromatase of 970 nM.

Turning to `Fc1ccc2c(c1)CC/C2=C/c1c[nH]cn1`, the Inhibition in series [1] stood at 58%; in series [2], 64%; in series [4], 11%.

For `C(=C1\CCCc2ccccc21)/c1c[nH]cn1`, the figures for the Inhibition in series [1], in series [2] and in series [4] were 82%, 95% and 13%, respectively. At Aromatase, the IC50 worked out at 190 nM.

The term Inhibition denotes the relative decrease from the control value, in per cent. Usually IC50 stands for the concentration that gives 50% inhibition. A high value points to a need for much substance.

For the origin of these results see ChEMBL document CHEMBL1144350, “Synthesis and evaluation of imidazolylmethylenetetrahydronaphthalenes and imidazolylmethyleneindanes: potent inhibitors of aldosterone synthase” (J Med Chem, 2005).
